Measured values: patent US12391701B2, “Chromene-based compounds, methods and uses thereof” (University of Minho, priority 2019, dated 2025)
In brackets after ≈: the same amount, converted by molar mass.

Tests used:
[1] = Highest soluble concentration in C. elegans assay; assay type: physicochemical; settings: C. elegans liquid culture medium (S-medium) with 1% DMSO, 20 °C, aqueous buffer, kinetic from dmso stock, read-out: highest soluble concentration possible
Procedure: The compounds were tested at several concentrations, up to the highest soluble concentration possible −150 μM (MC369, 75 μM) (FIG. 12). […] The rate of food consumption between days 3-5 was used as an indication for worm development, health and fertility and compared to 1% DMSO, (vehicle, not toxic).
In an embodiment, Bristol strain N2 (provided by the CGC, funded by the NIH Office of Research Infrastructure Programs—P40 OD010440) was used to test each compound's toxicity based on a food clearance assay using C. elegans. The assay was performed on 96-well plates in liquid culture (Voisine et al. 2007; Teixeira-Castro et al. 2015). Each well, with a final volume of 60 μL, comprised the following: approximately 20 worms in egg stage, OP50 bacteria to a final OD of 0.6-0.8 (595 nm) and each compound at the appropriate concentration. The worms were grown with continuous shaking at 180 rpm/20° C. (Shel lab Si series incubator) for 7 days and the absorbance (OD595) was measured daily on a microplate reader (Tecan Infinite M200). The effect of the compounds on C. elegans physiology was monitored by the rate at which the E. coli food suspension was consumed (FIG. 14). Age-synchronized worm eggs were obtained by “egg prep” as follows: adult worms were treated with an alkaline hypochlorite solution (20% bleach, 25% 1M NaOH) for 6 minutes, thereafter centrifuged and washed in M9 buffer twice. […]

C57BI/6 mice [2] = experiment: Toxicity in C57BI/6 mice, 1st trial; assay type: in vivo
Procedure: In an embodiment, the safety profiles of the compounds were evaluated in rodents. […] FIG. 13A is a schematic representation of the experiment timeline. 5-month old female and male animals were used (n=3/group/gender) and injected either with MC408 3 mg/Kg or vehicle (saline, Tween80 and methylcellulose) (i.p.) daily for 7 days. A battery of welfare tests was performed daily. […] The activity was measured in a viewing jar and the number of vertical movements were counted for 5 minutes. […] The activity was recorded in an open arena labelled with squares and the number of squares were counted while the animals were freely exploring for 1 minute. […] In FIGS. 13G and H, water and food intake were analysed respectively. Each day, […] of food and 200 mL of water were placed in each cage. […] Data is presented as mean±SE.
In an embodiment, C57/BI6 female and male mice (n=3/group/gender) were intraperitoneally injected with MC408 (3 mg/Kg) or vehicle (saline, Tween80 and methylcellulose) daily, for 7 days to determine toxicity of the compounds in mice model. A battery of tests to assess mice welfare were performed daily. Immediately after the first drug administration, animals were videotaped and the immediate effects of MC408 were recorded. The number of vertical movements and the immobility time were recorded. Water and food intake were evaluated during the 7 days of the experiment, by adding a fixed amount of food and water in the animal's home cage in the 1st day and measuring the remaining amount at day 7. Body weight was assessed every day in a dynamic mouse scale. Horizontal and vertical activity was analysed to evaluate animals' intrinsic exploratory behavior; these were measured in an open arena with labelled squares for 1 minute and in a viewing jar for 5 minutes, respectively. Furthermore, the number of bolus faecalis were also counted while animals were performing the daily behavior assessment protocols, as a measure of anxiety. A battery of tests more related to animal welfare was applied by the experimenter, including measurements of: (i) body position and curvature; (ii) spontaneous activity; (iii) respiratory rate; (iv) eyelid opening and reflexes; (v) skin picking to analyse dehydration; (vi) grooming; (vii) fur erection; (viii) tremors; (ix) limb clasping and (x) reaction to transfer. At day 7, the animals were euthanized. All animals were deeply anesthetized (ketamine hydrochloride (150 mg/kg) and medetomidine (0.3 mg/kg)) and transcardially perfused with a saline solution (NaCl 0.9% (wt/v)). Blood was collected from the cava vein, centrifuged for 10 minutes at 13.000 rpm and the plasma was transferred to a new tube and stored at −80° C. until further processing for enzymatic liver function measurements using standard techniques. The organs (kidney, intestine, stomach, brain, liver, ovary/testis) were harvested and placed in tubes containing 4% paraformaldehyde and further processed for paraffin embedding and pathology analysis.

C57BI/6 mice [3] = experiment: Toxicity in C57BI/6 mice, 2nd trial; assay type: in vivo; settings: 3 mg/Kg i.p. daily for 7 days
Procedure: In an embodiment, the effects of compound treatment on C57BI/6 mice—2nd trial was analysed. […] FIG. 16A is a schematic representation of the experiment timeline. 3-month old female and male animals were used (n=6/group/gender) and injected either with MC408 3 mg/Kg or vehicle (saline, Tween80 and methylcellulose) (i.p.) daily for 7 days. In this trial the number of animals per group was increased and the experiment was conceived to collect blood before and after the treatment. […] Data is presented as mean±SE.

SMILES	solubility [1]	exploratory activities (vertical and horizontal) (C57BI/6 mice [2]; 3 mg/Kg i.p. daily for 7 days)	number of bolus faecalis (indirect measure of anxiety) (C57BI/6 mice [2]; 3 mg/Kg i.p. daily for 7 days)	body weight (C57BI/6 mice [2]; 3 mg/Kg i.p. daily for 7 days, 1st trial)	water and food intake (C57BI/6 mice [2]; 3 mg/Kg i.p. daily, measured at day 7)	battery of welfare tests (C57BI/6 mice [2]; 3 mg/Kg i.p. daily, vs vehicle)	immobility time and vertical movement (REARS) immediately after first injection (C57BI/6 mice [2]; 3 mg/Kg i.p., 10 min, vs vehicle)	serum AST and ALT (enzymatic liver function) (C57BI/6 mice [2]; day 7, females and males, vs vehicle)	body weight (C57BI/6 mice [3])
COc1cccc2c1Oc1nc(-c3ccccc3F)[nH]c1C2C1c2cccc(OC)c2Oc2nc(-c3ccccc3F)[nH]c21 (stereo not drawn) [MC369, 2,2′-bis(2-fluorophenyl)-5,5′-dimethoxy-1,1,9,9′-tetrahydro-9,9′-bichromeno[2,3-]imidazoles]	75 µM (≈ 44.3 µg/mL)	–	–	–	–	–	–	–	–
COc1cccc2c1Oc1nc(-c3ccc(Br)cc3)[nH]c1C2 [MC408, 2-(4-bromophenyl)-5-methoxy-3,9-dihydrochromeno[2,3-d]imidazoles]	–	No differences were found	no differences were observed	no differences were found	no differences were found	no impact	No differences were found	No statistical differences	no differences were found
